Reference: PubChem BioAssay (NCI)
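1) Cells in 96-well plates. 2) Compound, 48 h, 5 concentrations. 3) Linear interpolation between surrounding doses. 4) Unreached endpoint = highest concentration. TGI denotes the concentration required for complete inhibition of growth.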

Tests used:
Assay in all cases: DTP human tumour cell line panel, 48 h
RXF-631 renal = system: RXF-631 renal
HCT-15 colon = system: HCT-15 colon
RXF 393 renal = system: RXF 393 renal
HOP-92 NSCLC = system: HOP-92 NSCLC
SW-620 colon = system: SW-620 colon
OVCAR-8 ovarian = system: OVCAR-8 ovarian
LOX IMVI melanoma = system: LOX IMVI melanoma
OVCAR-4 ovarian = system: OVCAR-4 ovarian
SF-268 CNS = system: SF-268 CNS
NCI-H522 lung = system: NCI-H522 lung
A549 NSCLC = system: A549 NSCLC
DMS 273 small cell lung = system: DMS 273 small cell lung
SNB-75 CNS = system: SNB-75 CNS
SN12C renal = system: SN12C renal
NCI-H226 lung = system: NCI-H226 lung
TK-10 renal = system: TK-10 renal
IGROV1 ovarian = system: IGROV1 ovarian
HL-60(TB) leukemia = system: HL-60(TB) leukemia
COLO 205 colon = system: COLO 205 colon
UACC-62 melanoma = system: UACC-62 melanoma
SK-MEL-5 melanoma = system: SK-MEL-5 melanoma
U251 CNS = system: U251 CNS
CCRF-CEM leukemia = system: CCRF-CEM leukemia
ACHN renal = system: ACHN renal
NCI-H23 lung = system: NCI-H23 lung
M19-MEL melanoma = system: M19-MEL melanoma
KM12 colon = system: KM12 colon
RPMI-8226 leukemia = system: RPMI-8226 leukemia
XF 498 CNS = system: XF 498 CNS
SK-OV-3 ovarian = system: SK-OV-3 ovarian
EKVX NSCLC = system: EKVX NSCLC
M14 melanoma = system: M14 melanoma
SNB-78 CNS = system: SNB-78 CNS
KM20L2 colon = system: KM20L2 colon
HCC-2998 colon = system: HCC-2998 colon
HOP-18 NSCLC = system: HOP-18 NSCLC
HOP-62 NSCLC = system: HOP-62 NSCLC
MOLT-4 leukemia = system: MOLT-4 leukemia
HCT-116 colon = system: HCT-116 colon
SF-295 CNS = system: SF-295 CNS
A498 renal = system: A498 renal
K-562 leukemia = system: K-562 leukemia
DMS 114 small cell lung = system: DMS 114 small cell lung
OVCAR-3 ovarian = system: OVCAR-3 ovarian
SNB-19 CNS = system: SNB-19 CNS
UO-31 renal = system: UO-31 renal
786-0 renal = system: 786-0 renal
SF-539 CNS = system: SF-539 CNS
UACC-257 melanoma = system: UACC-257 melanoma
HT29 colon = system: HT29 colon
SK-MEL-28 melanoma = system: SK-MEL-28 melanoma
SK-MEL-2 melanoma = system: SK-MEL-2 melanoma
MALME-3M melanoma = system: MALME-3M melanoma
NCI-H460 lung = system: NCI-H460 lung
OVCAR-5 ovarian = system: OVCAR-5 ovarian
LXFL 529 NSCLC = system: LXFL 529 NSCLC
DLD-1 colon = system: DLD-1 colon

## O=S(=O)(c1ccccc1)N1CCC1c1ccccc1 (centres undefined)
RXF-631 renal
  TGI: > 100 µM
HCT-15 colon
  TGI: > 100 µM
RXF 393 renal
  TGI: > 100 µM
HOP-92 NSCLC
  TGI: > 100 µM
SW-620 colon
  TGI: > 100 µM
OVCAR-8 ovarian
  TGI: > 100 µM
LOX IMVI melanoma
  TGI: > 100 µM
OVCAR-4 ovarian
  TGI: > 100 µM
SF-268 CNS
  TGI: > 100 µM
NCI-H522 lung
  TGI: > 100 µM
A549 NSCLC
  TGI: > 100 µM
DMS 273 small cell lung
  TGI: > 100 µM
SNB-75 CNS
  TGI: > 100 µM
SN12C renal
  TGI: > 100 µM
NCI-H226 lung
  TGI: > 100 µM
TK-10 renal
  TGI: > 100 µM
IGROV1 ovarian
  TGI: > 100 µM
HL-60(TB) leukemia
  TGI: 85.1 µM
COLO 205 colon
  TGI: > 100 µM
UACC-62 melanoma
  TGI: > 100 µM
SK-MEL-5 melanoma
  TGI: > 100 µM
U251 CNS
  TGI: > 100 µM
CCRF-CEM leukemia
  TGI: > 100 µM
ACHN renal
  TGI: > 100 µM
NCI-H23 lung
  TGI: > 100 µM
M19-MEL melanoma
  TGI: > 100 µM
KM12 colon
  TGI: > 100 µM
RPMI-8226 leukemia
  TGI: > 100 µM
XF 498 CNS
  TGI: > 100 µM
SK-OV-3 ovarian
  TGI: > 100 µM
EKVX NSCLC
  TGI: > 100 µM
M14 melanoma
  TGI: > 100 µM
SNB-78 CNS
  TGI: > 100 µM
KM20L2 colon
  TGI: > 100 µM
HCC-2998 colon
  TGI: > 100 µM
HOP-18 NSCLC
  TGI: > 100 µM
HOP-62 NSCLC
  TGI: > 100 µM
MOLT-4 leukemia
  TGI: > 100 µM
HCT-116 colon
  TGI: > 100 µM
SF-295 CNS
  TGI: > 100 µM
A498 renal
  TGI: > 100 µM
K-562 leukemia
  TGI: > 100 µM
DMS 114 small cell lung
  TGI: > 100 µM
OVCAR-3 ovarian
  TGI: > 100 µM
SNB-19 CNS
  TGI: > 100 µM
UO-31 renal
  TGI: > 100 µM
786-0 renal
  TGI: > 100 µM
SF-539 CNS
  TGI: > 100 µM
UACC-257 melanoma
  TGI: > 100 µM
HT29 colon
  TGI: > 100 µM
SK-MEL-28 melanoma
  TGI: > 100 µM
SK-MEL-2 melanoma
  TGI: > 100 µM
MALME-3M melanoma
  TGI: > 100 µM
NCI-H460 lung
  TGI: > 100 µM

## CCN(CC)CC(C(=O)Nc1c(C)cccc1C)/C(C)=N\NC(=S)NN (centres undefined)
RXF-631 renal
  TGI: > 100 µM
RXF 393 renal
  TGI: > 100 µM
HOP-92 NSCLC
  TGI: > 100 µM
SW-620 colon
  TGI: > 100 µM
OVCAR-8 ovarian
  TGI: > 100 µM
OVCAR-5 ovarian
  TGI: > 100 µM
LOX IMVI melanoma
  TGI: > 100 µM
SF-268 CNS
  TGI: > 100 µM
NCI-H522 lung
  TGI: > 100 µM
A549 NSCLC
  TGI: > 100 µM
DMS 273 small cell lung
  TGI: > 100 µM
SNB-75 CNS
  TGI: > 100 µM
NCI-H226 lung
  TGI: > 100 µM
TK-10 renal
  TGI: > 100 µM
IGROV1 ovarian
  TGI: > 100 µM
HL-60(TB) leukemia
  TGI: > 100 µM
COLO 205 colon
  TGI: > 100 µM
UACC-62 melanoma
  TGI: > 100 µM
SK-MEL-5 melanoma
  TGI: > 100 µM
U251 CNS
  TGI: > 100 µM
CCRF-CEM leukemia
  TGI: > 100 µM
ACHN renal
  TGI: > 100 µM
LXFL 529 NSCLC
  TGI: > 100 µM
NCI-H23 lung
  TGI: > 100 µM
M19-MEL melanoma
  TGI: > 100 µM
KM12 colon
  TGI: > 100 µM
RPMI-8226 leukemia
  TGI: > 100 µM
XF 498 CNS
  TGI: > 100 µM
SK-OV-3 ovarian
  TGI: > 100 µM
EKVX NSCLC
  TGI: > 100 µM
M14 melanoma
  TGI: > 100 µM
KM20L2 colon
  TGI: > 100 µM
HCC-2998 colon
  TGI: > 100 µM
HOP-62 NSCLC
  TGI: > 100 µM
MOLT-4 leukemia
  TGI: > 100 µM
HCT-116 colon
  TGI: > 100 µM
SF-295 CNS
  TGI: > 100 µM
A498 renal
  TGI: > 100 µM
K-562 leukemia
  TGI: > 100 µM
DLD-1 colon
  TGI: > 100 µM
OVCAR-3 ovarian
  TGI: > 100 µM
UO-31 renal
  TGI: > 100 µM
786-0 renal
  TGI: > 100 µM
SF-539 CNS
  TGI: > 100 µM
UACC-257 melanoma
  TGI: > 100 µM
HT29 colon
  TGI: > 100 µM
SK-MEL-28 melanoma
  TGI: > 100 µM
SK-MEL-2 melanoma
  TGI: > 100 µM
MALME-3M melanoma
  TGI: > 100 µM
NCI-H460 lung
  TGI: > 100 µM
